According to the NIST ThermoML archive (doi:10.1016/j.fluid.2015.04.031):
Numbers after ± are expanded uncertainties.

Details: Liquid; for mass density: 101.33 kPa, Vibrating tube method; for vapor or sublimation pressure: Closed cell (Static) method

Compound | mass density (298.15 K) | vapor or sublimation pressure (293.15 K) | vapor or sublimation pressure (298.15 K) | vapor or sublimation pressure (303.15 K) | vapor or sublimation pressure (308.15 K) | vapor or sublimation pressure (313.15 K)
CCCC[N+]1(C)CCCC1.N#CC(=C=[N-])C#N [1-butyl-1-methylpyrrolidinium tricyanomethanide] | 1006.75 ± 1.1 kg/m3 | – | – | – | – | –
CCCC[n+]1ccc(C)cc1.N#CC(=C=[N-])C#N [1-butyl-4-methylpyridinium tricyanomethanide] | 1036.62 ± 1.2 kg/m3 | – | – | – | – | –
c1ccsc1 [thiophene] | 1058.56 ± 0.12 kg/m3 | 8.19 ± 0.13 kPa | 10.4 ± 0.14 kPa | 12.97 ± 0.15 kPa | 16.1 ± 0.17 kPa | 19.4 ± 0.17 kPa
c1ccncc1 [pyridine] | 982.85 ± 0.11 kg/m3 | 2.1 ± 0.1 kPa | 2.77 ± 0.11 kPa | 3.62 ± 0.11 kPa | 4.68 ± 0.11 kPa | 6 ± 0.11 kPa
